# PMC8694143 (Microbiology Spectrum, 2021)
# Key:
# Experiment in all cases: MIC determination in broth
# Assay type in all cases: cell-based, Staphylococcus aureus
# [1] = test system: MRSA ATCC BAA-2094; conditions: STIP3 variants, highest conc. tested 100 μg/mL; cation-adjusted MH broth, ~10^5 CFU/mL, 2-fold dilution series, 37°C, 16 h
# Method: (§1) M. luteus ATCC 4698, S. aureus ATCC 29213, a panel of 7 MRSA (ATCC MP-2) strains, which includes ATCC BAA-41, BAA-42, BAA-44, BAA-1683, BAA-2094, BAA-2313, and 33592, and a series of additional bacterial isolates from human and veterinary cases were used in this study (Table S6). Bacterial strains were routinely grown in lysogeny broth (LB: 10 g/L tryptone, 5 g/L yeast extract, 10 g/L NaCl) at 30°C (M. luteus) or 37°C (Staphylococcus spp.) prior to use in specific experiments described below.
# (§2) The MICs were measured for bioactive peptides identified from the initial screen. Cation-adjusted Mueller-Hinton (MH) broth was used as the growth medium for MIC determination experiments. Bacterial cultures were diluted to an OD of 5 × 10^−4 (∼10^5 CFU/mL) in 200 μL MH broth mixed with peptides in a 2-fold dilution series arrayed in 96-well plates. Plates were incubated without shaking at 30 or 37°C depending on the organism.
# [2] = test system: MRSA ATCC BAA-44; conditions: STIP3 variants, highest conc. tested 100 μg/mL; cation-adjusted MH broth, ~10^5 CFU/mL, 2-fold dilution series, 37°C, 16 h
# Method: as §1, §2
# [3] = test system: S. aureus ATCC 29213; conditions: STIP3 variants, highest conc. tested 100 μg/mL; cation-adjusted MH broth, ~10^5 CFU/mL, 2-fold dilution series, 37°C, 16 h
# Method: as §1, §2
# [4] = test system: MRSA ATCC BAA-1683; conditions: STIP3 variants, highest conc. tested 100 μg/mL; cation-adjusted MH broth, ~10^5 CFU/mL, 2-fold dilution series, 37°C, 16 h
# Method: as §1, §2
# [5] = test system: MRSA ATCC BAA-42; conditions: STIP3 variants, highest conc. tested 100 μg/mL; cation-adjusted MH broth, ~10^5 CFU/mL, 2-fold dilution series, 37°C, 16 h
# Method: as §1, §2
# [6] = test system: MRSA ATCC BAA-2313; conditions: STIP3 variants, highest conc. tested 100 μg/mL; cation-adjusted MH broth, ~10^5 CFU/mL, 2-fold dilution series, 37°C, 16 h
# Method: as §1, §2
# [7] = test system: MRSA ATCC BAA-41; conditions: STIP3 variants, highest conc. tested 100 μg/mL; cation-adjusted MH broth, ~10^5 CFU/mL, 2-fold dilution series, 37°C, 16 h
# Method: as §1, §2
# [8] = test system: MRSA ATCC 33592; conditions: Table S5; STIP3 variants, highest conc. tested 100 μg/mL; cation-adjusted MH broth, ~10^5 CFU/mL, 2-fold dilution series, 37°C, 16 h
# Method: as §1, §2
Substance,"MIC, S. aureus ATCC BAA 2094 (SCCmec V) [1]","MIC, S. aureus ATCC BAA 44 (SCCmec I) [2]","MIC, S. aureus ATCC 29213 [3]","MIC, S. aureus ATCC BAA 1683 (SCCmec IV) [4]","MIC, S. aureus ATCC BAA 42 (SCCmec VI) [5]","MIC, S. aureus ATCC BAA 2313 (SCCmec XI) [6]","MIC, S. aureus ATCC BAA 41 (SCCmec II) [7]","MIC, S. aureus ATCC 33592 (SCCmec III) [8]"
"TVAGLVKWILATVKKFA [STIP3-15, rationally designed STIP3-1 variant]",25 µg/mL,25 µg/mL,25 µg/mL,25 µg/mL,50 µg/mL,50 µg/mL,50 µg/mL,12.5 µg/mL
"TVDGLVKWILATVKKFA [STIP3-17, rationally designed STIP3-1 variant]",> (The > symbol indicates that no inhibition was observed at 100 μg/mL for the STIP3 variants),> (The > symbol indicates that no inhibition was observed at 100 μg/mL for the STIP3 variants),> (The > symbol indicates that no inhibition was observed at 100 μg/mL for the STIP3 variants),> (The > symbol indicates that no inhibition was observed at 100 μg/mL for the STIP3 variants),> (The > symbol indicates that no inhibition was observed at 100 μg/mL for the STIP3 variants),> (The > symbol indicates that no inhibition was observed at 100 μg/mL for the STIP3 variants),> (The > symbol indicates that no inhibition was observed at 100 μg/mL for the STIP3 variants),> (The > symbol indicates that no inhibition was observed at 100 μg/mL for the STIP3 variants)
"TVGGLVKWILAAVKKFA [STIP3-12, rationally designed STIP3-1 variant]",50 µg/mL,25 µg/mL,25 µg/mL,25 µg/mL,25 µg/mL,25 µg/mL,25 µg/mL,25 µg/mL
"TVGGLVKWILDTFKKFA [STIP3-11, rationally designed STIP3-1 variant]",100 µg/mL,100 µg/mL,50 µg/mL,50 µg/mL,50 µg/mL,100 µg/mL,50 µg/mL,50 µg/mL
"TVGGLVKWILDTVKKFA-NH2 [STIP3-27, C-terminally amidated STIP3-1]",25 µg/mL,25 µg/mL,50 µg/mL,25 µg/mL,25 µg/mL,50 µg/mL,25 µg/mL,50 µg/mL
"TVGGLVKWILDVVKKFA [STIP3-9, rationally designed STIP3-1 variant]",25 µg/mL,25 µg/mL,25 µg/mL,25 µg/mL,25 µg/mL,25 µg/mL,35 µg/mL,25 µg/mL
"TVGGLVKWILDWVKKFA [STIP3-10, rationally designed STIP3-1 variant]",100 µg/mL,200 µg/mL,100 µg/mL,> (The > symbol indicates that no inhibition was observed at 100 μg/mL for the STIP3 variants),25 µg/mL,50 µg/mL,100 µg/mL,100 µg/mL
"TVGGLVKWILKAVKKFA [STIP3-13, rationally designed STIP3-1 variant]",25 µg/mL,25 µg/mL,25 µg/mL,25 µg/mL,25 µg/mL,25 µg/mL,12.5 µg/mL,25 µg/mL
"TVGGLVKWILKTVKKFA [STIP3-3, rationally designed STIP3-1 variant]",25 µg/mL,25 µg/mL,25 µg/mL,50 µg/mL,50 µg/mL,50 µg/mL,25 µg/mL,25 µg/mL
"TVGGLVKWILNTVKKFA [STIP3-4, rationally designed STIP3-1 variant]",50 µg/mL,50 µg/mL,100 µg/mL,100 µg/mL,50 µg/mL,100 µg/mL,50 µg/mL,50 µg/mL
"TVGVLVKWILNVVAKFA [STIP3-24, rationally designed STIP3-1 variant]",> (The > symbol indicates that no inhibition was observed at 100 μg/mL for the STIP3 variants),> (The > symbol indicates that no inhibition was observed at 100 μg/mL for the STIP3 variants),> (The > symbol indicates that no inhibition was observed at 100 μg/mL for the STIP3 variants),> (The > symbol indicates that no inhibition was observed at 100 μg/mL for the STIP3 variants),> (The > symbol indicates that no inhibition was observed at 100 μg/mL for the STIP3 variants),> (The > symbol indicates that no inhibition was observed at 100 μg/mL for the STIP3 variants),> (The > symbol indicates that no inhibition was observed at 100 μg/mL for the STIP3 variants),> (The > symbol indicates that no inhibition was observed at 100 μg/mL for the STIP3 variants)
"TVKALVKWILKTVAKFA [STIP3-19, rationally designed STIP3-1 variant]",25 µg/mL,25 µg/mL,50 µg/mL,25 µg/mL,50 µg/mL,25 µg/mL,50 µg/mL,25 µg/mL
"TVKALVKWILKTVAKFW [STIP3-21, rationally designed STIP3-1 variant]",12.5 µg/mL,25 µg/mL,25 µg/mL,12.5 µg/mL,25 µg/mL,12.5 µg/mL,25 µg/mL,25 µg/mL
"TVKALVKWILKTVAKFW-NH2 [STIP3-31, rationally designed STIP3-1 variant, C-terminal amide]",25 µg/mL,25 µg/mL,25 µg/mL,25 µg/mL,50 µg/mL,25 µg/mL,25 µg/mL,25 µg/mL
"TVKFLVKWILKWVAKFA [STIP3-25, rationally designed STIP3-1 variant]",> (The > symbol indicates that no inhibition was observed at 100 μg/mL for the STIP3 variants),> (The > symbol indicates that no inhibition was observed at 100 μg/mL for the STIP3 variants),> (The > symbol indicates that no inhibition was observed at 100 μg/mL for the STIP3 variants),> (The > symbol indicates that no inhibition was observed at 100 μg/mL for the STIP3 variants),> (The > symbol indicates that no inhibition was observed at 100 μg/mL for the STIP3 variants),> (The > symbol indicates that no inhibition was observed at 100 μg/mL for the STIP3 variants),> (The > symbol indicates that no inhibition was observed at 100 μg/mL for the STIP3 variants),> (The > symbol indicates that no inhibition was observed at 100 μg/mL for the STIP3 variants)
